We go through 12 molecules from patent US12187729B2, “Compounds having PDE9A inhibitory activity, and pharmaceutical uses thereof” (KOREA RESEARCH INSTITUTE OF CHEMICAL TECHNOLOGY, priority 2018, dated 2025).

For orientation: IC50 means the concentration at which inhibition is half-maximal. Lower therefore signals inhibition by little substance.

PDE9A, sequence (O76083 whole entry): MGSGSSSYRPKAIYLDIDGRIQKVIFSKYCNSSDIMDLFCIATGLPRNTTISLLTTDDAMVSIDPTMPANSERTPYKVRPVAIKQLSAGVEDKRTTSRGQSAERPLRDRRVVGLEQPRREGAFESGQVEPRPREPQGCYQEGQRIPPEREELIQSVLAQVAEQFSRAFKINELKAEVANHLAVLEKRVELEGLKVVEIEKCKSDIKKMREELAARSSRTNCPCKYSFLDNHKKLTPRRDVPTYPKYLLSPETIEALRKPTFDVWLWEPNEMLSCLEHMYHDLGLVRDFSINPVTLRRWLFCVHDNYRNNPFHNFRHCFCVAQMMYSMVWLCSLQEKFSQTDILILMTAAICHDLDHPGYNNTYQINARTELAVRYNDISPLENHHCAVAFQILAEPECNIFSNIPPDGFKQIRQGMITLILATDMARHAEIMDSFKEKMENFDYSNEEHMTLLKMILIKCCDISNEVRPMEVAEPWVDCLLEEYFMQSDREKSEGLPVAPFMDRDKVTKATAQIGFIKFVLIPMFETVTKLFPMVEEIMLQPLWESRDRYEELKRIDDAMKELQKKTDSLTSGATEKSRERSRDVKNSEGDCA

In this assay the target is PDE9A (Homo sapiens (Human), UniProt O76083). The assay can be described thus: PDE9A inhibitory activity, fluorescence polarization assay (IMAP-FP screening express kit). The class given is biochemical. Conditions: enzyme PDE9A 5 ng/ml, Fl-cGMP substrate 100 nM, room temperature 1 hour. As for the experimental part:
The inhibitory activity of the representative compounds according to the present invention against phosphodiesterase 9A was tested based on the polarization assay (IMAP-FP screening express kit) provided by MDS (MDS Analytical Technologies, Sunyvale, CA, USA). As a buffer solution, a reaction solution (a reaction solution containing 0.01% Tween 20 provided by MDS was diluted 5 times, then 5 mM DTT is added) and a polarization detection solution (binding solution A and B provided by MDS were mixed at a ratio of 3:1 and IMAP binding reagent 1/600 was added) were prepared. 100 μM of the substrate (Fl-cGMP substrate; MDS) and 3.6 μg/ml of the enzyme PDE9A (ab54113; abeam) were prepared. 3.6 μg/ml PDE9A and 100 μM substrate were diluted to 20 ng/ml (final reaction concentration: 5 ng/ml) and 400 nM (final reaction concentration: 100 nM), respectively. The buffer solution used for all dilution and preparation processes was 1× reaction solution with 1 mM DTT added, and the polarization detection solution was used to induce polarization at the end.
The prepared samples were dispensed on black microplates (Multiwell 384 well plates, #3573, Corning Life Sciences, Lowell, MA, USA) using a 16-channel pipette (multi 16-channel, Finnpipette, Thermo Scientific, Essex, UK). The total reaction volume per well is 20 μl. At this time, 10 μl of 2% DMSO, 5 μl of substrate solution, and 5 μl of reaction solution were used as a negative control, and 10 μl of 2% DMSO, 5 μl of substrate solution, and 5 μl of PDE9A solution were used as a positive control. As the experimental group, 10 μl of the compound prepared in Example, 5 μl of the substrate solution, and 5 μl of the PDE9A solution were used. After pretreatment between the compound and the enzyme was performed for about […] before the enzyme-substrate reaction, 5 μl of cGMP was added to induce the enzyme reaction. During the reaction, each compound, enzyme, and substrate occupied 50%, 25%, and 25% of the total volume, respectively, and they were prepared at high concentrations of 2, 4, and 4 times, respectively, immediately before addition. After the enzymatic reaction, it was shaken lightly for 1 minute and the enzyme reaction was induced at room temperature for 1 hour. Then, 60 μl of a polarization detection solution prepared in advance was added to induce polarization.
Nanoparticles composed of trivalent metal ions are mixed in the fluorescence detection solution, which combines with phosphoric acid expose by enzymatic reaction to increase the molecular weight and induce polarization. After leaving for 2 hours at room temperature, the polarization (Fluorescence Polarization, FP) value was measured using a multilabel counter (Envision, PerkinElmer, Turku, Finland) (emission wavelength: P-535 nm, S-535 nm, excitation wavelength: 480 nm), and the result was expressed as an IC50 value, which is the concentration of the compound that inhibited PDE9A by 50% in vitro (Table 2).
Consider `CCSc1nnc(NC(=O)C(C)Sc2nc3c(cnn3C3CCC(F)(F)CC3)c(=O)[nH]2)s1` (stereo not drawn) [Example 28, 2-((1-(4,4-difluorocyclohexyl)-4-oxo-4,5-dihydro-1H-pyrazolo[3,4-d]pyrimidin-6-yl)thio)-N-(5-(ethylthio)-1,3,4-thiadiazol-2-yl)propanamide], for which the midpoint of inhibition, the IC50, lay at 0.1 nM.
The figure for `CCSc1nnc(NC(=O)CSc2nc3c(cnn3C3CC3)c(=O)[nH]2)s1` [Example 40, N-(5-(ethylthio)-1,3,4-thiadiazol-2-yl)-2-((1-cyclopropyl-4-oxo-4,5-dihydro-1H-pyrazolo[3,4-d]pyrimidin-6-yl)thio)acetamide] is 39 nM; for `Cc1ccc(-c2nnc(NC(=O)CSc3nc4c(cnn4-c4ccccc4)c(=O)[nH]3)s2)cc1` [Example 24, 2-((4-oxo-1-phenyl-4,5-dihydro-1H-pyrazolo[3,4-d]pyrimidin-6-yl)thio)-N-(5-(p-tolyl)-1,3,4-thiadiazol-2-yl)acetamide] it is 41 nM; for `O=C(CSc1nc2c(cnn2-c2ccc(F)cc2)c(=O)[nH]1)Nc1nnc(Br)s1` [Example 17, N-(5-bromo-1,3,4-thiadiazol-2-yl)-2-((1-(4-fluorophenyl)-4-oxo-4,5-dihydro-1H-pyrazolo[3,4-d]pyrimidin-6-yl)thio)acetamide] it is 27 nM.
The figure for `CC(C)n1ncc2c(=O)[nH]c(SCC(=O)Nc3nnc(Cl)s3)nc21` [Example 43, N-(5-chloro-1,3,4-thiadiazol-2-yl)-2-((1-isopropyl-4-oxo-4.5-dihydro-1H-pyrazolo[3,4-d]pyrimidin-6-yl)thio)acetamide] is 3 nM.
The molecule `O=C(CSc1nc2c(cnn2C2CCSCC2)c(=O)[nH]1)Nc1nnc(Cl)s1` [Example 39, N-(5-chloro-1,3,4-thiadiazol-2-yl)-2-((4-oxo-1-(tetrahydro-2H-thiopyran-4-yl)-4,5-dihydro-1H-pyrazolo[3,4-d]pyrimidin-6-yl)thio)acetamide] returned an IC50 of 1 nM.
The value for `O=C(CSc1nc2c(cnn2C2CC2)c(=O)[nH]1)Nc1nnc(Cl)s1` [Example 44, N-(5-chloro-1,3,4-thiadiazol-2-yl)-2-((1-cyclopropyl-4-oxo-4,5-dihydro-1H-pyrazolo[3,4-d]pyrimidin-6-yl)thio)acetamide] was 36 nM; that for `O=C(CSc1nc2c(cnn2-c2ccccc2)c(=O)[nH]1)Nc1nncs1` [Example 4, 2-((4-oxo-1-phenyl-4,5-dihydro-1H-pyrazolo[3,4-d]pyrimidin-6-yl)thio)-N-(1,3,4-thiadiazol-2-yl)acetamide] was 230 nM.
The value for `CCSc1nnc(NC(=O)CSc2nc3c(cnn3C(C)C)c(=O)[nH]2)s1` [Example 37, N-(5-(ethylthio)-1,3,4-thiadiazol-2-yl)-2-((1-isopropyl-4-oxo-4,5-dihydro-1H-pyrazolo[3,4-d]pyrimidin-6-yl)thio)acetamide] was 1 nM; that for `O=C(CSc1nc2c(cnn2C2CCC(F)(F)CC2)c(=O)[nH]1)Nc1nnc(Cl)s1` [Example 1, 2-((1-(4,4-difluorocyclohexyl)-4-oxo-4,5-dihydro-1H-pyrazolo[3,4-d]pyrimidin-6-yl)thio)-N-(5-chloro-1,3,4-thiadiazol-2-yl)acetamide] was 0.4 nM.
Molecule `CCSc1nnc(NC(=O)CSc2nc3c(cnn3C3CCC(F)(F)CC3)c(=O)[nH]2)s1` [Example 19, 2-((1-(4,4-difluorocyclohexyl)-4-oxo-4,5-dihydro-1H-pyrazolo[3,4-d]pyrimidine-6-yl)thio)-N-(5-(ethylthio)-1,3,4-thiadiazol-2-yl)acetamide] came in with an IC50 of 0.6 nM.
The value for `CCSc1nnc(NC(=O)CSc2nc3c(cnn3C3CCOCC3)c(=O)[nH]2)s1` [Example 27, N-(5-(ethylthio)-1,3,4-thiadiazol-2-yl)-2-((4-oxo-1-(tetrahydro-2H-pyran-4-yl)-4,5-dihydro-1H-pyrazolo[3,4-d]pyrimidin-6-yl)thio)acetamide] was 0.5 nM.
